Biological target: T1, KSP(367H) (Homo sapiens, UniProt P52732)
T1 construct: Add 18.75 μl of 4 μM stock nucleotide-free KSP(367H)
T1 sequence (P52732 1-367 limits assumed): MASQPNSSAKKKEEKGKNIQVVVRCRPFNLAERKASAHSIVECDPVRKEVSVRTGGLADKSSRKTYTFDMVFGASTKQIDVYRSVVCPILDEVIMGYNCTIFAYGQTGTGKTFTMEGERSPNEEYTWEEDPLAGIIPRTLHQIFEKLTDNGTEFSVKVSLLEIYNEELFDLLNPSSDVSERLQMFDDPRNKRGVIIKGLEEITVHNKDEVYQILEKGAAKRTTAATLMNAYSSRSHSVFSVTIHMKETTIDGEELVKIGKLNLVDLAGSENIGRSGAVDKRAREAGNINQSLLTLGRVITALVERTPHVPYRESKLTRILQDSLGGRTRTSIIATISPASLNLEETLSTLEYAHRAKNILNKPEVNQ
Assay: Fluorescence of Trp127 of KSP -/+ inhibitors (in vitro binding assay for the novel KSP binding site)
Method: The binding of a ligand to the novel binding site of the instant invention and the formation of the novel binding pocket as a result can als6 be indirectly assessed by spectroscopically determining the shift in the fluorescence of the amino acid 127 tryptophan residue. Thus it has been discovered that the fluorescent emission of Trp127 is modulated when KSP is treated with one of the inhibitors described above in the presence of a nucleotide or nucleotides.
A further embodiment of the instant invention is an in vitro assay for the determination of binding of a test compound to the novel KSP binding site described herein. The assay comprises the steps of: • 1. contacting KSP with the test compound and a nucleotide and measuring the fluorescence of the mixture at the peak emission wavelength for Trp127 in KSP; • 2. contacting KSP with a nucleotide and measuring the fluorescence of the mixture at the peak emission wavelength for Trp127 in KSP; and • 3. comparing the fluorescence of the mixture of KSP, the test compound and the nucleotide with the fluorescence of the mixture of KSP with the nucleotide alone.
In another embodiment of the in vitro fluorescence assay the nucleotide is selected from ADP and AMPPNP (a non-hydrolysable analog of ATP, adenosine 5′-(β,γ-imido)triphosphate tetralithium salt hydrate).
• 2× kinesin buffer: 160 mM K-Hepes, 2 mM MgCl2, 2 mM EGTA, 2 mM DTT (added fresh daily), and 100 mM KCl, pH 6.8. • Nucleotide: nucleotide is resuspended to 200 mM in 50 mM K-Hepes (pH 6.8). • Nucleotide is diluted 1:1 with 200 MM MgCl2 to a stock concentration of 100 mM of 1:1 nucleotide:MgCl2. • Cuvette volume=300 μl Methods • 1) Add 281 μl of 1× kinesin buffer, ±nucleotide, and H2O (Nucleotide=none, 1 mM AMPPNP, or 1 mM ADP (final concentration)). • 2) Add 18.75 μl of 4 μM stock nucleotide-free KSP(367H). • 3) Add compound sequentially from DMSO stock (with all the volume of all additions ≦0.6 μl). • 4) Measure fluorescence after each addition (starting with buffer only). • 5) Example titration for Compound 8-1 with KSP(367H)ADP: 281 μl of 1× kinesin buffer+1 mM ADP: • add 250 nM KSP (18.75 μl of 4 uM nucleotide-free stock) • add 1 nM Compound 8-1 (1 nMf) (addition of 0.3 μl of 0.001 mM stock) • add 2 nM Compound 8-1 (3 nMf) (addition of 0.6 μl of 0.001 mM stock) • add 4 nM Compound 8-1 (7 nMf) (addition of 0.12 μl of 0.01 mM stock) • add 3 nM Compound 8-1 (10 nMf) (addition of 0.09 μl of 0.01 mM stock) • add 20 nM Compound 8-1 (30 nMf) (addition of 0.6 μl of 0.01 mM stock) • add 40 nM Compound 8-1 (70 nMf) (addition of 0.12 μl of 0.1 mM stock) • add 30 nM Compound 8-1 (100 nMf) (addition of 0.09 μl of 0.1 mM stock) • add 200 nM Compound 8-1 (300 nMf) (addition of 0.6 μl of 0.1 mM stock) • add 400 nM Compound 8-1 (700 nMf) (addition of 0.12 μl of 1 mM stock) • add 300 nM Compound 8-1 (1000 nMf) (addition of 0.09 μl of 1 mM stock) • add 2000 nM Compound 8-1 (3000 nMf) (addition of 0.6 μl of 1 mM stock). • 6) After each addition, measure steady-state fluorescence under the following conditions: • λex=[…], λem=342-346 nm, band width=3 nm ex/3 nm em, wavelength increment=0.5 nm, integration time=2 s. • 7) Repeat the same titration series: • in the absence of KSP (to determine compound-related background), and in the absence of KSP, but in the presence of 1 μM L-tryptophan (to determine compound-related effects on the amino acid itself). Calculations
At the peak emission wavelength for W127 in KSP(367H) (=344 nm) measure the compound emission in kinesin buffer as a function of [compound]; measure fluorescence of L-tryptophan as a function of [compound]; measure fluorescence of KSP(367H) as a function of [compound]; correct KSP(367H) fluorescence for its decrease over time (due to losses of protein to the cuvette); subtract compound emission from L-tryptophan emission; subtract compound emission from KSP(367H) emission. […]

[1] = in the absence of the nucleotide
[2] = in the presence of ADP or AMPPNP

Row | fluorescence of Trp127 [1] | fluorescence of Trp127 [2] | Compound
1 | does not cause a decrease | dose dependent decrease | CCOC(=O)C1=C(C)NC(=S)NC1c1cccc(O)c1 (single isomer, unassigned; (+)) [Compound 5-2b, (+)-4-(3-Hydroxyphenyl)-6-methyl-2-thioxo-1,2,3,4-tetrahydro-4H-pyrimidin-5-carboxylic acid ethyl ester, reference compound]
2 | does not cause a decrease | dose dependent decrease | CCC(c1nc2sccc2c(=O)n1Cc1ccccc1)N(CCN(C)C)Cc1ccc(Br)cc1 (stereo not drawn) [Compound 8-1, 3-benzyl-2-(1-{(4-bromobenzyl)[2-(dimethylamino)ethyl]amino}propyl)thieno[2,3-d]pyrimidin-4(3H)-one]

Row | Compound | fluorescence of Trp127 [1] | fluorescence of Trp127 [2]
3 | CC(=O)N1N=C(c2ccccc2Cl)CC1c1cccc(O)c1 (stereo not drawn) [Compound 1-7, 3-[1-acetyl-3-(2-chlorophenyl)-4,5-dihydro-1H-pyrazol-5-yl]phenol] | does not cause a decrease | dose dependent decrease

— patent US20060134767A1, “Mitotic kinesin binding site” (priority 2002, published 2006)
